Measured values from US20250296955A1, “PIN1 TARGETING COMPOUNDS AND DEGRADERS AND METHODS THEREOF” (The Regents of the University of California, priority 2024, published 2025).
Read-outs that look alike come from different tables or passages of the source. Values belong to the molecule of their own block, whether it stands above or below them. Where a SMILES comes first, the peptide text is derived from it. [ ]: non-standard residue; d: D form. The star is where a group is joined. Tyr(3-NO2) = N[C@@H](Cc1ccc(O)c([N+](=O)[O-])c1)C(=O)O; Trp(6-Cl) = N[C@@H](Cc1c[nH]c2cc(Cl)ccc12)C(=O)O; Trp(7-Me) = Cc1cccc2c(C[C@H](N)C(=O)O)c[nH]c12; pY = N[C@@H](Cc1ccc(OP(=O)(O)O)cc1)C(=O)O; Pip = O=C(O)[C@@H]1CCCCN1; ClAc = O=C(CCl)*

Tests used:
[1] = target: T1, Pin1 (Homo sapiens, UniProt Q13526); experiment: Denaturation thermal shift assay (SYPRO Orange); assay type: binding; parameters: human Pin1 (residues 1-163); made in house; host or cells: E. coli BL21 (DE3) gold pLysS; conditions: for ΔTm: running text and figure legends; for share of first thermal shift peak: percentage in brackets after first ΔTm; for share of second thermal shift peak: percentage in brackets after second ΔTm
Source text: (§1) Important to the success of structure activity relations studies, robust biochemical, biophysical, and cell-based assays were implemented that enabled rapid and iterative evaluations of test Pin1 targeting agents. First, the DELFIA (Dissociation-enhanced lanthanide fluorescent immunoassay) assay platform was used to derive a robust heterogeneous assay to monitor the ability of test agents to displace the binding between Pin1 and the D-Peptide (Table 1), which was obtained in a biotinylated form (FIG. 10). […] Second, for an orthogonal biophysical assay denaturation thermal shift measurements were used. Pin1 was incubated with vehicle control (buffer with 1% DMSO), or test agents at protein: ligand ratio of 1:2 (20 μM protein-40 μM compound) for 10 min at 10° C. in the presence of the fluorescent dye SYPRO Orange. The samples were gradually exposed to increasing temperature (linear gradient from 10° C. to 95° C.), causing the protein to unfold. This unfolding allowed the fluorescent dye to bind to the protein's exposed hydrophobic residues, resulting in an increase in fluorescence. The thermal shift assay measures the protein's melting temperature (Tm), which is the temperature at which the protein denatures by 50%. Ligands can affect a protein target to thermal denaturation, which could manifest in a positive or negative shift in the protein denaturation temperature (ΔTm) (Bai N, Roder H, Dickson A, & Karanicolas J (2019) Scientific Reports 9; and Kranz J K & Schalk-Hihi C (2011) Fragment-Based Drug Design: Tools, Practical Approaches, and Examples 493:277-298). Using these two assays, a series of commercially available Pin1 inhibitors were profiled (Table 1). The non-covalent agent D-peptide resulted only moderately active, with an IC50 value of ˜3 μM that closely resembled the dissociation constant for this agent determined via isothermal titration calorimetry, and the ˜ 3 μM IC50 value as reported by a fluorescence polarization assay (Pinch B J, et al. (2020) Nat Chem Biol 16(9):979-987). […] (Table 1) was observed.
Thermal shift assays for Pin1 alone and in the presence of the inhibitors were obtained with a BioRad CFX Connect Real-Time PCR Detection System. Each data point was collected in quadruplicate. Each sample was prepared using buffer 50 mM Phosphate pH 7.5, 150 mM NaCl, 1% DMSO. Protein: ligand ratio used was 1:2 (20 μM protein-40 μM compound), and SYPRO Orange was used. Incubation of the Pin1 protein with the compounds was performed at 10° C. for 10 min. Samples were then heated from 10 to 95° C. with heating increments of 0.05° C., over 30 min. Fluorescence intensity was measured within the excitation/emission ranges 470-505/540-700 nm.

[2] = target: T1, Pin1; experiment: Pin1 degradation in a panel of human cancer cell lines (western blot); assay type: cell-based; conditions: all cell lines, exposed to 5 μM, 24 h (FIG. 4); read-out: Dmax (the maximal level of degradation)
Procedure: In these studies, it was evident that both agents were very effective in degrading Pin1 in all tested human cancer cell lines with DC50 values (the concentration at which 50% degradation was observed)˜500 nM and Dmax (the maximal level of degradation) close to 100% with all cell lines when exposed to 5 μM of either agent (FIG. 4).
(§2) BxPC3, MIA PaCa-2, PANC-1, MDA-MB-231, and PC3 were obtained from the American Type Culture Collection (ATCC) and A549 NucLight Red cells were purchased from Essen Bioscience. BxPC3 and PC3 cells were cultured in RPMI (Corning) while PANC-1 cells were cultured in DMEM (Corning). MIA PaCa-2 cells were also cultured in DMEM, but with the addition of 2.5% horse serum. A549 NucLight cells were cultured in a Ham's F-12 nutriend mixture with GlutaMAX-1 (Gibco). All of the culture media were supplemented with 10% FBS. […]
(§3) At the end of the treatments, cells were lysed with a lysis buffer containing 20 mM Tris, pH 7.4, 120 mM NaCl, 1% Triton X-100, 0.5% sodium deoxycholate, 0.1% SDS, 1% IGEPAL, 5 mM EDTA, protease inhibitor cocktail and PhosSTOP (Sigma-Aldrich). […] Protein concentrations were determined using the Pierce BCA Protein Assay Kit (ThermoFisher Scientific) according to the manufacturer's instruction. […]

[3] = target: T1, Pin1; experiment: Pin1 degradation in BxPC3 cells (western blot); assay type: cell-based; conditions: Bx-PC3 cell line, 25 μM, 24 h (FIG. 1B)
Source text: Next, each cell line was exposed to a relatively high concentration of each of the Pin1 inhibitors from Table 1 and measured their ability to cause Pin1 degradation in the Bx-PC3 cell line under the experimental conditions reported in FIG. 1B. […] It was hypothesized that this observed degradation in the series correlated with the increased sensitivity of Pin1 to thermal degradation induced by BJP-07-017-3 in vitro (Table 1).
as §2, §3

[4] = target: T1, Pin1; experiment: DELFIA displacement assay (displacement of biotinylated D-peptide from 6His-Pin1); assay type: binding; parameters: human Pin1 (residues 1-163); made in house; host or cells: E. coli BL21 (DE3) gold pLysS
Source text: as §1
For the reported covalent agents such as sulfopin (Dubiella C, et al. (2021) Nat Chem Biol 17(9):954-963), BJP-07-017-3 (Pinch B J, et al. (2020) Nat Chem Biol 16(9):979-987), or KPT-6566 (Campaner E, et al. (2017) Nat Commun 8:15772), a 6-h pre-incubation period was included in the DELFIA assay to allow the covalent reaction to take place. For those agents, IC50 values that fell in the low nanomolar range were observed, consistent with what was reported previously for those compounds. […] To make those determinations in a broader panel of cancer cell lines three pancreatic cancer cell lines, BxPC3, MIA-PaCa-2, and PANC-1, the breast cancer cell line MDA-MB-231, the prostate cancer cell line PC3, and the non-small cell lung cancer cell line A549 were chosen. Each cell line represents various states of KRAS activating mutations (for example BxPC3 is wt-KRAS, while MIAPaCa2 carries the KRAS(G12C) mutation, and the PANC-1 the KRAS(G12D) (Miquel M, Zhang S, & Pilarsky C (2021) Front Cell Dev Biol 9:748631), A549 is KRAS(G12S) (Wang H, et al. (2019) EBioMedicine 49:106-117), MDA-MB-231 is KRAS(G13D) (Kim R K, et al. (2015) Exp Mol Med 47(1):e137), PC3 is wt-KRAS (Bouali S, et al. (2009) Oncol Rep 21(3):731-735). Pin1 protein levels in these cell lines were established using a specific Pin1 antibody in western blot analyses (FIG. 1A). The data confirmed that all these selected human cancer cell lines expressed a significant level of Pin1 (FIG. 1A).
Each well of 96-well streptavidin-coated plates (PerkinElmer) was incubated with 100 μL of 200 nM biotinylated D-peptide for 2 h and washed 3 times with a wash solution (PerkinElmer). Subsequently, a mixture containing Pin1, and a serial dilution of the test compounds were pre-incubated for 6 h. Eu-N1-labeled anti-6x-His antibody (PerkinElmer, 1:2000) was then added to this mixture and further incubated in the biotinylated D-peptide-bound plates for another 2 h. […]

[5] = Table 3, two peaks observed, likely incomplete complex formation
[6] = Table 3, single transition, ± SE of four replicates
[7] = Table 4, single transition, ± SE of four replicates
[8] = Table 5, only one transition given

T1 sequence (Q13526 whole entry, the tested form may be a part): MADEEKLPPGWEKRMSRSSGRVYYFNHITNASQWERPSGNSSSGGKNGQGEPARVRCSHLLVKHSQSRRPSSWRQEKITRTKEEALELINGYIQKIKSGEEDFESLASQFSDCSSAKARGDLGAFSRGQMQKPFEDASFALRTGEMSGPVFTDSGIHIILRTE

SMILES: NC(=O)[C@H](Cc1c[nH]c2ccccc12)NC(=O)[C@@H]1CCCCN1C(=O)[C@H](Cc1c[nH]c2cc(Cl)ccc12)NC(=O)CCl [158H9] (ClAc-[Trp(6-Cl)]-[Pip]-Trp-NH2)
ΔTm [1]: −8.41 °C | Dmax [2]: ~100%

SMILES: CC(C)(C)CN(C(=O)CCl)C1CCS(=O)(=O)C1 (centres unmarked) [Sulfopin]
Pin1 degradation in cell [3]: significant Pin1 degradation

SMILES: CN(C(=O)CCl)[C@@H](Cc1ccccc1)C(=O)N1CCCC[C@H]1C(=O)N[C@@H](CC1CNc2ccccc21)C(=O)N[C@@H](CCCNC(N)=O)C(N)=O (some centres unmarked) [158A12, reference compound]
Pin1 degradation in cell [3]: significant Pin1 degradation | ΔTm (° C.) 30 min ([1]; Table 1, Protein:compound 1:2, 20X Sypro Orange, 50 mM phosphate pH 7.5, 150 mM NaCl, 3% DMSO, ± SE of four replicates): −6.40 ± 0.04 °C | ΔTm [1]: −6.4 °C | IC50 ([4]; Table 1, 6-h pre-incubation followed by 2-h incubation, ± SD from duplicates): 0.009 ± 0.001 µM

SMILES: O=C(CCl)N[C@@H](Cc1ccccc1)C(=O)N1CCCC[C@H]1C(=O)NCCc1c[nH]c2ccc(F)cc12 [158G7]
share of first thermal shift peak ([1]; Table 3): 50% | share of second thermal shift peak ([1]; Table 3): 50% | ΔTm (° C.), first of two peaks [1, 5]: −0.45 ± 0.15 °C | ΔTm (° C.), second printed of two peaks [1, 5]: −14.28 ± 0.28 °C | IC50 ([4]; Table 3, ± SD from duplicates): 1.04 ± 0.316 µM

SMILES: NC(=O)[C@H](Cc1c[nH]c2ccccc12)NC(=O)[C@@H]1CCCCN1C(=O)[C@H](Cc1ccc(OP(=O)(O)O)cc1)NC(=O)CCl [158E7] (ClAc-[pY]-[Pip]-Trp-NH2)
ΔTm (° C.) [1, 6]: −7.08 ± 0.22 °C | IC50 ([4]; Table 3, ± SD from duplicates): 0.327 ± 0.025 µM

SMILES: NC(=O)[C@H](Cc1c[nH]c2ccccc12)NC(=O)[C@@H]1CCCCN1C(=O)[C@H](Cc1ccc(O)c([N+](=O)[O-])c1)NC(=O)CCl [158G10] (ClAc-[Tyr(3-NO2)]-[Pip]-Trp-NH2)
ΔTm (° C.) [1, 6]: −10.44 ± 0.17 °C | IC50 ([4]; Table 3, ± SD from duplicates): 0.183 ± 0.012 µM

SMILES: CN[C@@H](Cc1ccccc1)C(=O)N1CCCC[C@H]1C(=O)N[C@@H](Cc1c[nH]c2ccccc12)C(=O)N[C@@H](CCCNC(N)=O)C(N)=O [158B3] (HELM PEPTIDE1{[meF].[O=C([C@@H]1CCCCN1[*:1])[*:2]].W.[Cit].[am]}$$$$V2.0)
ΔTm (° C.) ([1]; Table 2, ± SE of four replicates): 0.62 ± 0.04 °C | ΔTm [1]: +0.62 °C | IC50 [4]: > 10 µM | IC50 ([4]; Table 2, in μM): > 10 µM

SMILES: O=C(CCl)N[C@@H](Cc1c[nH]c2ccccc12)C(=O)N1CCCC[C@H]1C(=O)NCCc1c[nH]c2cc(Cl)cc(Cl)c12 [164A3]
ΔTm (° C.) [1, 8]: −13.68 ± 0.20 °C | IC50 ([4]; Table 5): 1.18 ± 0.045 µM

SMILES: O=C(CCl)N[C@@H](Cc1ccccc1)C(=O)N1CCCC[C@H]1C(=O)NCCc1c[nH]c2cc(Cl)cc(Cl)c12 [158G6]
share of first thermal shift peak ([1]; Table 3): 70% | share of second thermal shift peak ([1]; Table 3): 30% | ΔTm (° C.), first of two peaks [1, 5]: +1.04 ± 0.08 °C | ΔTm (° C.) [1, 8]: +1.04 ± 0.08 °C | IC50 ([4]; Table 3, ± SD from duplicates): 0.327 ± 0.018 µM

The remaining lines, values ahead:

ΔTm (° C.) [1, 7]: −20.46 ± 0.04 °C | IC50 ([4]; Table 4, ± SD from duplicates): 0.035 ± 0.005 µM
SMILES: NC(=O)[C@H](Cc1c[nH]c2ccccc12)NC(=O)[C@@H]1C[C@H]2CCCC[C@@H]2N1C(=O)[C@@H]1Cc2c([nH]c3ccccc23)CN1C(=O)CCl [164A4]

ΔTm [1]: −8.95 °C | Dmax [2]: ~100%
SMILES: NC(=O)[C@H](Cc1c[nH]c2ccc(F)cc12)NC(=O)[C@@H]1CCCCN1C(=O)[C@@H]1Cc2c([nH]c3ccccc23)CN1C(=O)CCl [164A10]

ΔTm (° C.) [1, 7]: −10.11 ± 0.20 °C | IC50 ([4]; Table 4, ± SD from duplicates): 0.091 ± 0.009 µM
SMILES: Cc1cccc2c(C[C@H](NC(=O)CCl)C(=O)N3CCCC[C@H]3C(=O)N[C@@H](Cc3c[nH]c4ccccc34)C(N)=O)c[nH]c12 [158H7] (ClAc-[Trp(7-Me)]-[Pip]-Trp-NH2)

ΔTm (° C.) [1, 7]: −9.21 ± 0.08 °C | IC50 ([4]; Table 4, ± SD from duplicates): 0.031 ± 0.001 µM
SMILES: NC(=O)[C@H](Cc1c[nH]c2cc(Cl)ccc12)NC(=O)[C@@H]1CCCCN1C(=O)[C@H](Cc1c[nH]c2ccccc12)NC(=O)CCl [158H12] (ClAc-Trp-[Pip]-[Trp(6-Cl)]-NH2)
